{"source": "patent US6776987B1", "about": "“Enhancement of cardiac chronotropy” (Massachusetts Institute of Technology, priority 1998, dated 2004)", "key": {"[1]": {"test_system": "cultured fetal murine myocardial cells", "test": "Average rate of myocyte contraction by video edge motion detector", "type": "cell-based, B6D2F1 fetal mice", "conditions": "control transfected cells in the presence of 10^-3 M isoproterenol", "experimental": "(§1) Cultured fetal murine myocardial cells were prepared as previously described (Iwaki, K. et al., J Biol Chem., 265(23):13809-17 (1990); Sen, A. et al., J Clin Invest., 82 (4):1333-8 (1988)). Myocytes from ventricles of 17.5 day old B6D2F1 fetal mice were fragmented with a straight-edge razor. The tissue was then digested with 0.5 mg/ml collagenase II (Worthington Biochemical Corp., Freehold, N.J.) and 1.0 mg/ml pancreatin (Sigma Chemical Co., St. Louis, Mo.) in ADS buffer (116 mM NaCl, 20 mM HEPES, 1 MM NaH2PO4, 5.5 mM glucose, 5.4 mM KCl, 0.8 mM MgSO4, pH 7.4) at 37° C. for 10 min. The cells were centrifuged at 700 g at 4° C. for 5 min. The cells were then plated onto 48-well plates (Falcon Labware, Cockeysville, Md.) precoated with 1% gelatin or onto 25 mm^2 square coverslips precoated with 1% gelatin and 20 μg/ml laminin at a density of 10^5 cell/ml in Dulbecco's modified Eagle's media (DMEM) supplemented with 10% fetal calf serum (FCS), and Streptomycin 100 μg/ml, and Penicillin (500 μg/mL). The myocytes were grown at 37° C. in 5% CO2.\nThe transfection of myocytes with lipofection was optimized. […]\nThe average rate of myocyte contraction was quantitated by motion detector under both baseline and 10^−3 M isoproterenol. […] The statistical significance of the increased rate of myocyte contraction was determined by Student's t-Test analysis."}, "[2]": {"test_system": "cultured fetal murine myocardial cells", "test": "In vitro myocyte contractile recruitment: percentage of beating and fast beating GFP-positive transfected myocytes", "type": "cell-based, B6D2F1 fetal mice", "experimental": "as §1\nThe transfection of myocytes with lipofection was optimized. Myocytes were plated as described above and grown overnight. The β2AR, LacZ, or GFP expression circular vectors (1:2.5 M/M; 0.125 μg total DNA/well) were incubated with Lipofectamine (Life Technologies) (12.5 μl/well) in Opti-Mem I (Life Technologies) reduced serum medium(12.5 μl/well) for 30 min at 25° C. After incubation, DMEM (100 μl/well) was added. The myocyte cultures were washed with PBS twice, the Lipofectamine-DNA mixtures were added, and the cultures incubated at 37° C. After 4 hours, an equal volume of DMEM with 20% FCS was added to the cultures. The cultures were incubated overnight and the medium was changed to DMEM with 10% FCS.\nThe myocytes were assayed 48 hr after transfection. […]\nThe percentage of beating myocytes was determined for cells transfected with either the β2AR expression vector or the control construct. […] In addition, the percentage of myocytes that were beating faster than 60 beats per minute (bpm) was determined in identical fashion. […]"}}}
{"smiles": "CC(C)NCC(O)c1ccc(O)c(O)c1", "note": "(stereo not shown) [isoproterenol]", "values": [{"measurement": "average rate of contraction", "setting": "[1]", "value": "75+/−18 bpm"}, {"measurement": "percentage of myocytes contracting", "setting": "[2]; control LacZ transfected myocytes, increasing concentrations of isoproterenol (0-10^-3 M)", "value": 69, "unit": "%"}, {"measurement": "percentage of myocytes with chronotropic rates greater than 60 bpm (fast beating cells)", "setting": "[2]; control transfected cells at 10^-3 M isoproterenol", "value": 54, "unit": "%"}, {"measurement": "effect on number of contracting myocytes", "setting": "[2]; β2AR transfected myocytes, addition of isoproterenol", "value": "failed to increase"}]}
